Data published in patent US11148998B2, “Dimethyl-nonatetraenyl-trimethyl-cyclohexyl compounds and uses thereof” (The Regents of the University of Michigan, priority 2017, dated 2021).
“Also recorded” adds a separate entry of the source.

What was measured:
[1] = system: serum pro-inflammatory cytokines; conditions: mouse, in vivo
Description: Each of the 4 experimental retinoids was made up in DMSO as 0.1% and 0.3% solutions. The material was applied to the treatment area (2 cm^2 area) on a dot marked area on the inter-scapular back) once daily for 7 consecutive days or for 21 consecutive days. The test agent was gently rubbed into the test site after application. As a control, Tretinoin-0.1% was used. […] This is a commonly-prescribed anti-acne medicine. A set amount of the test article, DMSO, DMSO plus test drug, or Tretinoin cream (35 mg) was delivered using a Gilson MICROMAN fully adjustable positive placement pipette.
Serum was obtained from all mice at the end of the study and evaluated for levels of pro-inflammatory cytokines. For this, the same multiplex ELISA used with human samples was employed except that mouse-recognizing antibodies replaced antibodies used to detect the human counterparts.

[2] = system: human dermal fibroblasts; assay: Retinoid-induced fibroblast survival under low-calcium conditions; type: cell-based; conditions: KBM 0.1 mM calcium, three days, 0.1 to 5 μg/mL
Description: Human dermal fibroblasts are isolated from skin biopsies as described previously and grown in monolayer culture using DMEM supplemented with 10% fetal bovine serum as culture medium (see, e.g., Varani J, et al., J Clin Invest. 1994; 94; Varani J, et al., J. Invest. Dermatol. 94:717-723, 1990). Growth is at 37° C. in a humidified atmosphere containing 5% CO2 and 95% air. For experimental studies, cells are plated at 5×10^4 cells per well in wells of a 24-well culture dish in the same culture medium. One day later, cells are washed and the DMEM culture medium is replaced with Keratinocyte Basal Medium (KBM).
In this assay, low-passage human dermal fibroblasts are grown for three days in Keratinocyte Basal Medium (KBM) at a calcium concentration (0.1 mM) that is too low to support survival. […] How retinoids act to prevent fibroblast lysis is not fully understood, but part of the mechanism involves modulation of calcium transit across the cell membrane in the presence of the active retinoids (see, e.g., Varani J, et al., Am. J. Path. 136:1275-1281, 1990; Varani K, et al., Am J. Pathol. 147:718-729, 1995; Varani J, et al., Amer. J. Pathol. 148: 1307-1312, 1996).

[3] = system: rhino mouse skin; assay: Rhino mouse topical treatment: skin histology (horn-filled utriculi, epidermal thickness, inflammation); type: in vivo; conditions: topical, concentration not given; for inflammatory response / inflammatory cell infiltrate in histological sections (in words): 21 days
Description: FIGS. 12A-C: Efficacy of retinoids at normalizing structure of rhino mouse skin after topical treatment for 21 days.
FIGS. 13A-C: Dose related effect of Example 2 on rhino mouse skin.
The rhinomouse model is an industry-standard pre-clinical model for evaluation of retinoids for anti-acne activity. The mice can be treated topically over a course of days with the desired compound (either formulated or in liquid solvent). During the course of treatment, the animals can be evaluated grossly for skin irritation. At the end of the treatment phase, the animals are euthanized. Skin from treated sites can be evaluated for efficacy—reduction in the number of horn-filled utriculi—and for histological evidence of inflammation.
As a control, Tretinoin-0.1% was used. […] This is a commonly-prescribed anti-acne medicine.
One day after the last treatment, animals were euthanized. The animals were injected with 7 ml 10% buffered formalin after euthanasia. 15 minutes later the treated area on the back of the mouse was removed and cut into 8 pieces. Every other piece was taken, so four pieces of skin were mounted in one cassette and fixed for histology. An extra piece of skin from a non-treated area was also evaluated.
Hematoxylin and eosin stained sections were evaluated microscopically for epidermal thickness with measurements made in the inter-follicular regions at 4 representative sites per tissue strip.
The number of horn-filled utriculi was determined by direct counting in the entire section of skin. Each of the four sections per biopsy was used for determining the number of utriculi. Section lengths were measured as a way to normalize findings. Typically, the section of skin varied from 16-20 mm.
Slides were examined microscopically and inflammation was scored on a 0 to 4+ basis. A score of zero indicated no inflammation while increasing collection of inflammatory cells was identified with increasing score. Slides were also evaluated to determine if inflammation was confined to the dermis or whether there was epidermal inflammation. Dermal inflammation was assessed to determine if inflammatory cells were scattered throughout the dermis or whether small abscesses were also present. Finally, the inflammatory lesions were evaluated to determine whether they consisted of primarily mononuclear cells, granulocytic cells or both. A similar scale has been used previously in the assessment of skin irritation.
At the end of the in-life portion of the study, mice were euthanized by CO2 overdose. Hematoxylin and eosin-stained histological sections from each mouse in the control, ATRA-treated and Compound 2-treated groups were evaluated with regard to the number of horn-filled utriculi, epidermal thickness, and inflammation. Briefly, the epidermis of control mice consisted of a thin epidermis with large numbers of horn-filled utriculi (98+10 per 20 mm of epidermal linear length). […] Both the ATRA-treated mouse (top right panel) the Compound 2 treated skin (bottom panel) show both much thickened […] and disappearance of utriculi. […] There were large numbers of inflammatory cells in the dermis. Microabscesses could be seen in places, and migration of inflammatory cells into the epidermis was also evident. The infiltrate consisted of both mononuclear cells and granulocytes. […] The three other experimental retinoids were also examined along with Compound 2. […] In FIG. 13 it can be seen that during the dosing period 0.1% of Compound 2 led to skin thickening, but incomplete resolution of the utricali, whereas at 0.3% the utricali were more fully resolved.

[4] = system: human dermal fibroblasts; assay: Generation of pro-inflammatory cytokines by fibroblasts (multiplex ELISA); type: cell-based; conditions: KBM 1.5 mM calcium, two days, culture fluids
Description: Fibroblasts were grown in KBM supplemented with 1.5 mM calcium (i.e., as in the fibroblast cytotoxicity assay) for two days. Culture fluids obtained at the end of the incubation period were assessed for several pro-inflammatory cytokines using a multiplex (ELISA-type) assay. Values shown are means and ranges based on duplicate samples in a single experiment. The experiment was repeated two times with similar results.
It is believed that the pro-inflammatory cytokines are “drivers” of the retinoid-induced skin irritation response. […] In this experiment, fibroblasts were cultured for two days in KBM supplemented with 1.5 mM calcium (i.e., as in the cytotoxicity assay). Culture fluids were collected after two days of incubation and subjected to a multiplex enzyme-linked immunosorbant assay (ELISA) for the following cytokines: TNF-α, IL-1β, IL-6, IL-8, MCP-1 and CXCL-1.

[5] = system: systemic cytokine release; conditions: intraperitoneal dosing; cited from earlier work
[6] = system: human skin in organ culture; conditions: cited from earlier work
[7] = system: skin wounds; assay: Wound healing in rats with steroid-induced atrophic skin; type: in vivo, rat
Description: FIGS. 15A-C: Results from a study in rats in which the skin was made atrophic by topical steroid treatment and then wounded. […] In the control animal (15CL), there was incomplete re-epithelialization over the wound and little collagen deposition in the dermis. […] The lack of irritation/inflammation is expected in the control animal but is unusual for a retinoid-treated animal. The data shown here was consistent over n=5 animals per group.
Given the lack of irritation associated with MDI 301, experiments were conducted reasoning that this retinoid might work in the acute wound setting. Essentially, a group of rats were treated with a potent steroid to induce skin atrophy followed by a wounding of the skin. Following this, rats were treated with vehicle alone or with MDI 301. […] It should be noted that in this study ATRA cannot be used, as its irritant properties exacerbate the original injury.

Compound | IL-1β serum level [1] | TNF-α serum level [1] | protection of fibroblasts from lysis (percentage of initially present cells still viable) [2] | inflammatory response / inflammatory cell infiltrate in histological sections (in words) [3] | number of utriculi compared to control (in words) [3] | induction of pro-inflammatory cytokines (TNF-α, IL-1β, IL-6, IL-8, MCP-1, CXCL-1) [4] | systemic cytokine release [5] | effect on collagen-degrading enzyme MMP-1 (collagenase 1) ([6]; human skin organ culture model) | procollagen I production ([6]; human skin organ culture model) | up-regulation of the pro-inflammatory cytokines that underlie retinoid-induced skin irritation ([6]; past studies) | histology of the wound site ([7]; 1% cream, after 13 days) | skin irritation and inflammation at the wound site ([7]; 1% cream, after 13 days) | healing of skin wounds compared to control rats ([7]; 1.0% cream, ~100 mgs daily to wound periphery, 13 days)
CC1=C(/C=C/C(C)=C\C=C\C(C)=C\C(=O)N2CCCC(=O)C2)C(C)(C)CCC1 [Example 3, 1-((2E,4E 6Z,8E)-3,7-dimethyl-9-(2,6,6-trimethylcyclohex-1-en-1-yl)nona-2,4,6,8-tetranonyl)piperidin-3-one] | low | low | capable of protecting fibroblasts from lysis under low-calcium conditions | did not produce an inflammatory response | reduced the number of utriculi as compared to control | much lower levels of the various cytokines than did ATRA |  |  |  |  |  |  | 
CC1=C(/C=C/C(C)=C\C=C\C(C)=C\C(=O)N(C)CC(=O)C2(C)CC2)C(C)(C)CCC1 [Example 4, (2E,4E,6Z,8E)-N,3,7-trimethyl—N-(2-(1-methylcyclopropyl)-2-oxoethyl)-9-(2,6,6-trimethylcyclohex-1-en-1-yl)nona-2,4,6,8-tetraenamide] | low | low | capable of protecting fibroblasts from lysis under low-calcium conditions | did not produce an inflammatory response | reduced the number of utriculi as compared to control | much lower levels of the various cytokines than did ATRA; also recorded: comparable to Compound 1 |  |  |  |  |  |  | 
CC1=C(/C=C/C(C)=C\C=C\C(C)=C\C(=O)OCC(=O)C(C)(C)C)C(C)(C)CCC1 [MDI 301] |  |  |  |  |  |  | did not elicit systemic cytokine release | inhibited the major collagen-degrading enzyme (MMP-1, collagenase 1) | induced procollagen I production | did not up-regulate the pro-inflammatory cytokines | confluent layer of epithelial keratinocytes over the wound site and a pronounced zone of fibroblast proliferation with new collagen formation under the epithelial layer | lack of skin irritation (15BR) and lack of inflammation (15CR) | healed more rapidly
